The assay addresses T1, human EP3 receptor (Homo sapiens, UniProt P43115).
T1 construct: expressed in transfected cells; host or cells: CHO K1 (Chinese Hamster Ovary), stably co-transfected with Galpha16 and mitochondrial clytin
T1 sequence (P43115 1-390): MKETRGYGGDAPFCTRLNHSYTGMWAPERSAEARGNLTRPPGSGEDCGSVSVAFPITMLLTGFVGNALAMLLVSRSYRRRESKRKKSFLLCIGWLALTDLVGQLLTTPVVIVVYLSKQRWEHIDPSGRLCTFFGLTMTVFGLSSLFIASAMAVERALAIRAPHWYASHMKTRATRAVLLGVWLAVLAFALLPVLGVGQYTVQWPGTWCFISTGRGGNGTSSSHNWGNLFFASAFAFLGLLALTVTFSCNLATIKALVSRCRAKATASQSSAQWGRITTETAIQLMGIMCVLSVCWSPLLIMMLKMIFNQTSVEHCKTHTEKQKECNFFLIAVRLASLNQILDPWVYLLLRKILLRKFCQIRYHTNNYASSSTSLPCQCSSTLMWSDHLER
The assay can be described thus: Cellular in vitro assay for determining EP3 receptor activity (human EP3 cell line, sulprostone-stimulated calcium luminescence). The settings on record: CHO cells expressing human EP3 and mitochondrial Clytin; antagonist mode, sulprostone at EC50; read-out: EP3 CHO mtCLY ANTAG IC50. The format is cell-based. In short, it runs like this: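 Antagonist activity was measured as inhibition of the luminescent calcium signal elicited by EC50 sulprostone, following 10 min compound pretreatment. The cell line was recombinant CHO K1 co-expressing human EP3, Gα16 and the photoprotein Clytin, reconstituted with coelenterazine.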
As for `Cc1cccc2ncc(-c3cn4nc(C(=O)NCc5ccncc5)c(C(C)C)c4c(=O)[nH]3)cc12` [Example 4-25, 6-(5-Methylquinolin-3-yl)-4-oxo-3-(propan-2-yl)-N-[(pyridin-4-yl)methyl]-4,5-dihydropyrazolo[1,5-a]pyrazine-2-carboxamide], the IC50 was 3.25 nM.

For `Cc1c(C(=O)NC2(c3ccc(F)cc3)CCN(CC(F)(F)F)CC2)nn2cc(-c3ccc4ccccc4c3)[nH]c(=O)c12` [6-5], the IC50 was 4.85 nM.

With `COC[C@@H](NC(=O)c1nn2cc(-c3ccc4ccccc4c3)[nH]c(=O)c2c1C(F)(F)F)c1ccccc1` [6-495], the IC50 turned out to be 0.61 nM.

As for `Cc1cc(-c2cn3nc(C(=O)NC(c4ccc(F)cc4)C(C)(C)O)c(C4CC4)c3c(=O)[nH]2)ccc1C(F)(F)F` (racemic) [6-133], the IC50 was determined as 5.05 nM.

On to `Cc1cc(-c2cn3nc(C(=O)NCC(C)(N)C(F)(F)F)c(C4CC4)c3c(=O)[nH]2)ccc1Cl` (racemic) [6-319], for which the IC50 was determined as 1.17 nM.

Regarding `Cc1ccc(-c2cn3nc(C(=O)NC(C)C4CCC4)c(C(F)(F)F)c3c(=O)[nH]2)cc1Cl` (single isomer, unassigned) [6-195], the 50% inhibitory concentration (IC50) was 1.55 nM.

Regarding `Cc1ccc(-c2cn3nc(C(=O)N[C@H](C)c4ccc(F)cc4)c(C(F)(F)F)c3c(=O)[nH]2)cc1C` [Example 1-95, 6-(3,4-Dimethylphenyl)-N-[(1R)-1-(4-fluorophenyl)ethyl]-4-oxo-3-(trifluoromethyl)-4,5-dihydropyrazolo[1,5-a]pyrazine-2-carboxamide], the IC50 worked out at 1.7 nM.

`COCc1c(C(=O)N[C@@H](C)C2CC2)nn2cc(-c3ccc(Cl)c(C)c3)[nH]c(=O)c12` [6-622]: the IC50 was found to be 1.25 nM.

Turning to `Cc1ccc(-c2cn3nc(C(=O)NC4(c5ccc(F)cc5)CCN(C)C4)cc3c(=O)[nH]2)cc1C` (single isomer, unassigned) [6-364], the IC50 turned out to be 6.45 nM.

As for `Cc1ccc(-c2cn3nc(C(=O)NC4CCN(CC(F)F)C4)c(C4CC4)c3c(=O)[nH]2)cc1C` (single isomer, unassigned) [6-454], the IC50 is 4.75 nM.

On to `Cc1c(C(=O)NC(C)c2cccc(Br)c2)nn2c(C)c(-c3ccc4ccccc4c3)[nH]c(=O)c12` (centres unmarked) [Example 3-24, N-[1-(3-Bromophenyl)ethyl]-3,7-dimethyl-6-(2-naphthyl)-4-oxo-5H-pyrazolo[1,5-a]pyrazine-2-carboxamide], for which the IC50 turned out to be 4.85 nM.

Turning to `Cc1cccc2ncc(-c3cn4nc(C(=O)NC5Cc6ccccc6C5)c(C(C)C)c4c(=O)[nH]3)cc12` [Example 4-38, N-(2,3-Dihydro-1H-inden-2-yl)-6-(5-methylquinolin-3-yl)-4-oxo-3-(propan-2-yl)-4,5-dihydropyrazolo[1,5-a]pyrazine-2-carboxamide], the IC50 is 1.3 nM.

As for `Cc1[nH]c2ccc(CNC(=O)c3nn4cc(-c5cnc6cccc(C)c6c5)[nH]c(=O)c4c3C(C)C)cc2c1C` [Example 4-10, N-[(2,3-Dimethyl-1H-indol-5-yl)methyl]-6-(5-methylquinolin-3-yl)-4-oxo-3-(propan-2-yl)-4,5-dihydropyrazolo[1,5-a]pyrazine-2-carboxamide], the half-inhibitory concentration (IC50) was determined as 2 nM.

For the molecule `CC[C@H](C)NC(=O)c1nn2cc(-c3ccc(Cl)c(C)c3)[nH]c(=O)c2c1C(F)(F)F` [6-216], the IC50 was 5.2 nM.

`Cc1ccc(-c2cn3nc(C(=O)NC(C)c4ccc(F)cc4)cc3c(=O)[nH]2)cc1C` (centres unmarked) [Example 5-1, 6-(3,4-Dimethylphenyl)-N-[1-(4-fluorophenyl)ethyl]-4-oxo-5H-pyrazolo[1,5-a]pyrazine-2-carboxamide]: the IC50 is 6.78 nM.

As to `COc1ccc(CCNC(=O)c2cc3c(=O)[nH]c(-c4ccc5c(c4)N(C)CCO5)cn3n2)cc1OC` [6-86], the IC50 turned out to be 1.95 nM.

For the molecule `Cc1ccc(-c2cn3nc(C(=O)NC(C)CN4CCOCC4)c(C4CC4)c3c(=O)[nH]2)cc1C` (racemic) [6-450], the IC50 worked out at 12 nM.

Regarding `COc1ccc(C(C)NC(=O)c2nn3cc(-c4cnc5cccc(C)c5c4)[nH]c(=O)c3c2C(C)C)cn1` (centres unmarked) [Example 4-6, 3-Isopropyl-N-[1-(6-methoxy-3-pyridyl)ethyl]-6-(5-methyl-3-quinolyl)-4-oxo-5H-pyrazolo[1,5-a]pyrazine-2-carboxamide], the IC50 amounted to 1.16 nM.

With `Cc1ccc(-c2cn3nc(C(=O)NC4CCN(CC(F)F)C4)c(C4CC4)c3c(=O)[nH]2)cc1C` (centres unmarked) [6-453], the IC50 stood at 1.13 nM.

Take `Cc1ccc(-c2cn3nc(C(=O)NC4(c5ccc(F)cc5)CN(CC(F)F)C4)c(C(F)(F)F)c3c(=O)[nH]2)cc1Cl` [6-202]: the IC50 worked out at 0.97 nM.

For the molecule `CCn1nccc1C(C)NC(=O)c1nn2cc(-c3cnc4cccc(C)c4c3)[nH]c(=O)c2c1C(C)C` (centres unmarked) [Example 4-34, N-[1-(1-Ethyl-1H-pyrazol-5-yl)ethyl]-3-isopropyl-6-(5-methylquinolin-3-yl)-4-oxo-4,5-dihydropyrazolo[1,5-a]pyrazine-2-carboxamide], the IC50 was 1.09 nM.

`O=C(N[C@H](CN1CCOCC1)c1ccc(F)cc1)c1nn2cc(-c3ccc(Cl)c(F)c3)[nH]c(=O)c2c1C1CC1` [6-106]: the IC50 was 0.61 nM.

As for `Cc1ccc(-c2cn3nc(C(=O)NC(C)COc4cc(Cl)cc(Cl)c4)cc3c(=O)[nH]2)cc1C` (centres unmarked) [6-3], the IC50 is 7.95 nM.

Consider `O=C(N[C@H](CCO)c1ccc(F)cc1)c1nn2cc(-c3ccc4ccccc4c3)[nH]c(=O)c2c1Cl` [Example 1-120, 3-Chloro-N-[(1R)-1-(4-fluorophenyl)-3-hydroxypropyl]-6-(naphthalen-2-yl)-4-oxo-4,5-dihydropyrazolo[1,5-a]pyrazine-2-carboxamide], for which the IC50 worked out at 0.495 nM.

`CC[C@H](C)NC(=O)c1nn2cc(-c3ccc(Cl)c(C)c3)[nH]c(=O)c2c1C1CC1` [6-331]: the IC50 worked out at 4.85 nM.

Consider `Cc1cc(-c2cn3nc(C(=O)N[C@@H](c4ccc(F)cc4)C(C)(C)O)c(C4CC4)c3c(=O)[nH]2)ccc1C(F)(F)F` [Example 1-132, 3-Cyclopropyl-N-[(1S)-1-(4-fluorophenyl)-2-hydroxy-2-methylpropyl]-6-[3-methyl-4-(trifluoromethyl)phenyl]-4-oxo-4,5-dihydropyrazolo[1,5-a]pyrazine-2-carboxamide], for which the IC50 came out at 4.05 nM.

As to `O=C(NC1CCN(CC(F)F)C1)c1nn2cc(-c3ccc4ccccc4c3)[nH]c(=O)c2c1C(F)(F)F` (single isomer, unassigned) [6-520], the IC50 was determined as 3.15 nM.

Turning to `O=C(N[C@@H](c1ccc(F)cc1)C(F)(F)CO)c1nn2cc(-c3cc(Cl)c(Cl)cc3F)[nH]c(=O)c2c1C1CC1` [6-582], the IC50 is 2.65 nM.

Consider `O=C(N[C@@H](c1ccc(F)cc1)C(F)(F)CO)c1nn2cc(-c3cccc(Cl)c3)[nH]c(=O)c2c1C1CC1` [6-678], for which the IC50 was determined as 5.2 nM.

`O=C(NCc1ncc(C(F)(F)F)cc1Cl)c1nn2cc(-c3ccc4ccccc4c3)[nH]c(=O)c2c1C(F)(F)F` [6-8]: the IC50 is 1.05 nM.

In the case of `Cc1ccc(-c2cn3nc(C(=O)NC(c4ccc(F)cc4)C4(O)CC4)c(C4CC4)c3c(=O)[nH]2)cc1F` (single isomer, unassigned) [6-382], the IC50 amounted to 0.78 nM.

Take `Cc1cccc2ncc(-c3cn4nc(C(=O)NC5(c6ccc(C#N)cc6)CC5)c(C(C)C)c4c(=O)[nH]3)cc12` [Example 4-3, N-[1-(4-Cyanophenyl)cyclopropyl]-6-(5-methylquinolin-3-yl)-4-oxo-3-(propan-2-yl)-4,5-dihydropyrazolo[1,5-a]pyrazine-2-carboxamide]: the IC50 is 1.65 nM.

As for `COc1ccccc1C(C)NC(=O)c1nn2c(C)c(-c3ccc4ccccc4c3)[nH]c(=O)c2c1C` (centres unmarked) [Example 3-28, N-[1-(2-Methoxyphenyl)ethyl]-3,7-dimethyl-6-(2-naphthyl)-4-oxo-5H-pyrazolo[1,5-a]pyrazine-2-carboxamide], the IC50 turned out to be 4.3 nM.

Regarding `O=C(NC(CCn1cncn1)c1ccccc1)c1cc2c(=O)[nH]c(-c3ccc4c(c3)OCCO4)cn2n1` (centres unmarked) [6-47], the IC50 came to 2.17 nM.

`Cc1ccc(-c2cn3nc(C(=O)NC4(c5ccc(F)cc5)CNC4)c(C(F)(F)F)c3c(=O)[nH]2)cc1C` [Example 1-175, 6-(3,4-Dimethylphenyl)-N-[3-(4-fluorophenyl)azetidin-3-yl]-4-oxo-3-(trifluoromethyl)-4,5-dihydropyrazolo[1,5-a]pyrazine-2-carboxamide-hydrogen chloride (1/1)]: the IC50 amounted to 5 nM.

As for `Cc1c(C(=O)N[C@H](C)c2ccc(F)cc2)nn2cc(-c3ccc4ccccc4c3)[nH]c(=O)c12` [Example 1-45, N-[(1R)-1-(4-Fluorophenyl)ethyl]-3-methyl-6-(naphthalen-2-yl)-4-oxo-4,5-dihydropyrazolo[1,5-a]-pyrazine-2-carboxamide], the IC50 was 2.85 nM.

With `Cc1cccc2ncc(-c3cn4nc(C(=O)NC(c5cccc(F)c5)C(F)F)c(C(C)C)c4c(=O)[nH]3)cc12` (centres unmarked) [Example 4-76, N-[2,2-Difluoro-1-(3-fluorophenyl)ethyl]-3-isopropyl-6-(5-methyl-3-quinolyl)-4-oxo-5H-pyrazolo[1,5-a]pyrazine-2-carboxamide], the IC50 was 3.15 nM.

For the molecule `Cc1ccc(-c2cn3nc(C(=O)NC(CO)C(F)(F)F)c(C(F)(F)F)c3c(=O)[nH]2)cc1Cl` (single isomer, unassigned) [6-162], the IC50 stood at 9.55 nM.

Values taken from patent publication US20220324865A1 (Bayer Aktiengesellschaft, priority 2018, published 2022).
